The values below come from patent publication US20260034146A1, “NEUROACTIVE 19-ALKOXY-17-S[…], PRODRUGS THEREOF, AND METHODS OF TREATMENT USING SAME” (priority 2012, published 2026).

Where only a bound is given, the exact number is not on record here.

Assay [1] concerns the target picrotoxin binding site on GABAA receptors. Description: [35S]-TBPS displacement (inhibition of [35S]-TBPS binding). The following applies: duplicate experiments performed in triplicate; ± standard error of the mean. On the procedure: The IC50 values for non-competitive displacers of [^35S]-TBPS from the picrotoxin binding site on GABAA receptors are reported in Table 1.
^aResults presented are from duplicate experiments performed in triplicate. Error limits are calculated as standard error of the mean. Methods used are known in the art (see Jiang, X., et al., Neurosteroid analogues. 9. Conformationally constrained pregnanes: structure-activity studies of 13,24-cyclo-18,21-dinorcholane analogues of the GABA modulatory and anesthetic steroids (3α,5α)- and […]. J. Med. Chem., 46: 5334-48 (2003)—the contents of which are hereby incorporated by reference in their entirety).

For assay [2], the system named is Tadpole. Put plainly: Tadpole loss of righting reflex (LRR) and loss of swimming reflex (LSR). The following applies: N=10 or more animals at each of five or more concentrations, ± SEM; for Tadpole LSR EC50 (μM): loss of swimming reflex; for Tadpole LRR EC50 (μM): loss of righting reflex. Type of assay: in vivo. How it is done: Table 3 discloses the anesthetic effects of the compounds of the present disclosure. In particular, the anesthetic effect of the compounds of the present disclosure on Loss of Righting Reflex (LRR) and Loss of Swimming Reflex (LSR).
Methods used are known in the art (see Jiang, X., et al.). Error limits are calculated as standard error of the mean (N=10 or more animals at each of five or more different concentrations).

Assay [3] concerns the target rat α1β2γ2L type GABAA receptors expressed in Xenopus laevis oocytes (Rattus norvegicus (Rat), UniProt P62813+P63138, INS375LLRMFSFK). Put plainly: Oocyte electrophysiology: potentiation of chloride currents mediated by 2 μM GABA, and direct gating. Type of assay: cell-based. The following applies: ± SEM; for oocyte electrophysiology, ratio of currents in presence/absence of compound, 0.1 μM: 0.1 μM compound; for oocyte electrophysiology, ratio of currents in presence/absence of compound, 0.1 μM / oocyte electrophysiology, ratio of currents in presence/absence of compound, 1 μM / oocyte electrophysiology, ratio of currents in presence/absence of compound, 10 μM: 2 μM GABA control, N≥4 oocytes; for oocyte electrophysiology, ratio of currents in presence/absence of compound, 1 μM: 1 μM compound; for oocyte electrophysiology, ratio of currents in presence/absence of compound, 10 μM: 10 μM compound; for (gating) 10 μM, ratio of compound only current/2 μM GABA current: direct current gated by 10 μM compound in the absence of GABA, N≥4. On the procedure: The compounds of the present disclosure were evaluated for the ability to potentiate chloride currents mediated by 2 μM GABA at rat α1β2γ2L type GABAA receptors expressed in Xenopus laevis oocytes and the results are shown in Table 2.
The GABA concentration used for the control response was 2 μM. Each compound was evaluated on at least four different oocytes at the concentrations indicated, and the results reported are the ratio of currents measured in the presence/absence of added compound. Gating represents direct current gated by 10 μM compound in the absence of GABA, and this current is reported as the ratio of compound only current/2 μM GABA current. Error limits are calculated as standard error of the mean (N≥4). Methods used are known in the art (see Jiang, X., et al.).

The test system of assay [4] is male beagle dogs. Description: Dog duration of lateral recumbence, intravenous bolus. Type of assay: in vivo. Conditions: dog dose 5 mg/kg. On the procedure:
The plasma pharmacokinetics and a qualitative assessment of sedation were obtained in male beagle dogs according to the following procedure. Dogs were dosed by intravenous bolus dose (60 seconds) via the cephalic vein at 5 mg/kg dose in an appropriate vehicle. In order to assess sedation, dogs were gently restrained for dose administration. If decreased muscle tone, limb weakness, or head drop was observed during dose administration, onset of lateral recumbence was recorded. […] Sluggish or incomplete righting to the sternal position qualifies as lateral recumbence. After onset of lateral recumbence, animals were assessed every 5 minutes in the same manner. The duration of lateral recumbence was recorded as the time interval between onset of lateral recumbence and the return to sternal position.

For assay [5], the system named is male Sprague Dawley rats. Put plainly: Rat loss of righting reflex (LRR), intravenous bolus. Type of assay: in vivo. On the procedure: The plasma pharmacokinetics and a qualitative assessment of sedation were obtained in male Sprague Dawley rats according to the following procedure. Rats were dosed by intravenous bolus dose (60 seconds) via the foot dorsal vein at doses ranging from 5 to 15 mg/kg in an appropriate vehicle. In order to assess sedation, rats were gently restrained by hand to a lateral position for dose administration. […] If the animal was unable to return to an upright position, the time was recorded as the onset of loss of righting reflex (LRR). […] Sluggish or incomplete righting twice consecutively within a 30 second interval qualifies as a loss of righting reflex. After onset of LRR, animals were assessed every 5 minutes in the same manner. Recovery of righting reflex is defined as the ability of a rat to right itself completely within 20 seconds of being placed in dorsal recumbency. The duration of LRR is defined as the time interval between LRR and the return of righting reflex.

One may read the IC50 as the concentration at which inhibition is half-maximal. The low end stands for higher potency, the high end for lower potency. Turning to `COC[C@]12CCC(O)CC1CC[C@@H]1[C@@H]2CC[C@]2(C)C(=O)CC[C@@H]12` (stereo in doubt) [30, MQ-94, (3α,5β)-3-Hydroxy-19-methoxyandrostan-17-one], the 50% inhibitory concentration (IC50) in assay [1] is greater than 30000 nM. Also, the “Tadpole LSR EC50 (μM)” value in assay [2] was “None”. In assay [3], the “oocyte electrophysiology, ratio of currents in presence/absence of compound, 0.1 μM” value is recorded as 0.90 ± 0.02; the “oocyte electrophysiology, ratio of currents in presence/absence of compound, 1 μM” value was found to be 0.88 ± 0.01; the “oocyte electrophysiology, ratio of currents in presence/absence of compound, 10 μM” value is on record as 0.84 ± 0.02; the “(gating) 10 μM, ratio of compound only current/2 μM GABA current” value (from here on “(gating) 10 μM, ratio”) stood at 0.03.
Regarding `COC[C@]12CCC(=O)C=C1CC[C@@H]1[C@@H]2CC[C@]2(C)[C@@H](OC)CC[C@@H]12` [24, MQ-99, (17β)-17,19-Dimethoxyandrost-4-en-3-one], the IC50 in assay [1] was 14500 nM. Further, in assay [2], the “Tadpole LRR EC50 (μM)” value is recorded as “None” and the “Tadpole LSR EC50 (μM)” value was “None”. In assay [3], the “oocyte electrophysiology, ratio of currents in presence/absence of compound, 0.1 μM” value is on record as 0.88 ± 0.08; the “oocyte electrophysiology, ratio of currents in presence/absence of compound, 1 μM” value is 0.63 ± 0.06; the “oocyte electrophysiology, ratio of currents in presence/absence of compound, 10 μM” value is given as 1.06 ± 0.17; the “(gating) 10 μM, ratio” value came out at 0.11 ± 0.17.
Turning to `COC[C@]12CC[C@@H](O)C[C@@H]1CC[C@H]1[C@@H]3CC[C@H](C#N)[C@@]3(C)CC[C@@H]12` [16, MQ-92, (3α,5α,17β)-3-Hydroxy-19-methoxyandrostane-17-carbonitrile], in assay [4], the “Duration of Dog Lateral Recumbence” value is on record as “B (B 10-20 min)”. Besides, the 50% inhibitory concentration (IC50) in assay [1] was 63 ± 7 nM. In assay [3], the “oocyte electrophysiology, ratio of currents in presence/absence of compound, 0.1 μM” value is on record as 1.52 ± 0.02; the “oocyte electrophysiology, ratio of currents in presence/absence of compound, 1 μM” value is 9.79 ± 0.53; the “oocyte electrophysiology, ratio of currents in presence/absence of compound, 10 μM” value stood at 25.7 ± 2.11; the “(gating) 10 μM, ratio” value came to 0.25 ± 0.11. In addition, in assay [5] (rat dose 5 mg/kg), the “Duration of Rat LRR” value was “B (B 10-20 min)”.
`COC[C@]12CC[C@@H](O)C[C@@H]1CC[C@@H]1[C@@H]2CC[C@]2(C)C(C#N)=CC[C@@H]12` [15, MQ-91, (3α,5α)-3-Hydroxy-19-methoxyandrost-16-ene-17-carbonitrile] came in with an IC50 in assay [1] of 118 ± 13 nM. Also, in assay [3], the “oocyte electrophysiology, ratio of currents in presence/absence of compound, 0.1 μM” value is listed as 1.27 ± 0.13; the “oocyte electrophysiology, ratio of currents in presence/absence of compound, 1 μM” value came to 5.34 ± 0.86; the “oocyte electrophysiology, ratio of currents in presence/absence of compound, 10 μM” value was determined as 25.6 ± 3.23; the “(gating) 10 μM, ratio” value was 0.10 ± 0.09.
In assay [1], `COC[C@]12CC[C@@H](O)C[C@@H]1CC[C@H]1[C@@H]3CC[C@H](C(=O)CO)[C@@]3(C)CC[C@@H]12` [20, MQ-98, (3α,5α)-3,21-Dihydroxy-19-methoxypregnan-20-one] registered an IC50 of 345 ± 61 nM. For the same compound, in assay [3], the “oocyte electrophysiology, ratio of currents in presence/absence of compound, 0.1 μM” value came out at 0.98 ± 0.01; the “oocyte electrophysiology, ratio of currents in presence/absence of compound, 1 μM” value is recorded as 2.76 ± 0.27; the “oocyte electrophysiology, ratio of currents in presence/absence of compound, 10 μM” value is 19.0 ± 2.31; the “(gating) 10 μM, ratio” value was 0.09 ± 0.05. The “Duration of Rat LRR” value in assay [5] (rat dose 15 mg/kg) was “A (A <10 min)”.
With `COC[C@]12CC[C@@H](O)C[C@@H]1CC[C@@H]1[C@@H]2CC[C@@]2(C)[C@H]1CC[C@@]21CO1` [12, MQ-90, (3α,5α,17β)-19-Methoxyspiro[androstane-17,2′-oxiran]-3-ol], the concentration for half-maximal inhibition (IC50) in assay [1] was determined as 79 ± 4 nM. In addition, in assay [3], the “oocyte electrophysiology, ratio of currents in presence/absence of compound, 0.1 μM” value is 1.24 ± 0.05; the “oocyte electrophysiology, ratio of currents in presence/absence of compound, 1 μM” value is given as 7.40 ± 1.43; the “oocyte electrophysiology, ratio of currents in presence/absence of compound, 10 μM” value came out at 18.7 ± 6.19; the “(gating) 10 μM, ratio” value stood at 0.14 ± 0.04.
The corresponding values for `COC[C@]12CCC(=O)C[C@@H]1CC[C@H]1[C@@H]3CC[C@H](OC)[C@@]3(C)CC[C@@H]12` [7, MQ-88, (5α,17β)-17,19-Dimethoxyandrostan-3-one] are 8700 nM, 1.00 ± 0, 0.85 ± 0.01, 1.07 ± 0.02 and 0.04 ± 0.03.
`COC[C@]12CC[C@@H](O)C[C@@H]1CC[C@H]1[C@@H]3CC[C@H](C(C)=O)[C@@]3(C)CC[C@@H]12` [17, MQ-93, (3α,5α)-3-Hydroxy-19-methoxypregnan-20-one]: the IC50 in assay [1] was determined as 47 ± 4 nM. For the same compound, in assay [3], the “oocyte electrophysiology, ratio of currents in presence/absence of compound, 0.1 μM” value is given as 2.15 ± 0.19; the “oocyte electrophysiology, ratio of currents in presence/absence of compound, 1 μM” value came to 12.8 ± 1.74; the “oocyte electrophysiology, ratio of currents in presence/absence of compound, 10 μM” value worked out at 33.8 ± 5.44; the “(gating) 10 μM, ratio” value is given as 0.23 ± 0.07. For the same compound, the “Duration of Rat LRR” value in assay [5] (rat dose 15 mg/kg) is on record as “C (C >20 min)”.
`COC[C@]12CC[C@@H](O)CC1=CC[C@@H]1[C@@H]2CC[C@]2(C)[C@@H](OC)CC[C@@H]12` [25, MQ-101, (3α,17β)-17,19-Dimethoxyandrost-5-en-3-ol]: in assay [1], the IC50 was 583 ± 71 nM. Besides, in assay [3], the “oocyte electrophysiology, ratio of currents in presence/absence of compound, 0.1 μM” value was 0.94 ± 0.07; the “oocyte electrophysiology, ratio of currents in presence/absence of compound, 1 μM” value stood at 1.97 ± 0.08; the “oocyte electrophysiology, ratio of currents in presence/absence of compound, 10 μM” value is listed as 15.7 ± 0.90; the “(gating) 10 μM, ratio” value was 0.08 ± 0.07.
The corresponding values for `COC[C@]12CC[C@H](O)C[C@@H]1CC[C@H]1[C@@H]3CC[C@H](OC)[C@@]3(C)CC[C@@H]12` [31, MQ-96, (3β,5α,17β)-17,19-Dimethoxyandrostan-3-ol] are 7800 nM, 0.91 ± 0.02, 0.97 ± 0.05, 1.10 ± 0.05 and 0.02 ± 0.
For the compound `COC[C@]12CC[C@H](O)CC1=CC[C@@H]1[C@@H]2CC[C@]2(C)[C@@H](OC)CC[C@@H]12` [26, MQ-100, (3β,17β)-17,19-Dimethoxyandrost-5-en-3-ol], in assay [1], the IC50 was 17800 nM. Further, in assay [2], the “Tadpole LRR EC50 (μM)” value was “None” and the “Tadpole LSR EC50 (μM)” value is given as “None”. Also, in assay [3], the “oocyte electrophysiology, ratio of currents in presence/absence of compound, 0.1 μM” value came to 0.83 ± 0.03; the “oocyte electrophysiology, ratio of currents in presence/absence of compound, 1 μM” value is 0.76 ± 0.02; the “oocyte electrophysiology, ratio of currents in presence/absence of compound, 10 μM” value amounted to 0.78 ± 0.02; the “(gating) 10 μM, ratio” value was found to be 0.02 ± 0.02.
